The record followed here is patent US8557741B2, “3-aminocarbonyl-substituted benzoylcyclohexanediones and their use as herbicides” (Bayer CropScience AG, priority 2010, dated 2013).

The structures appear in SMILES notation. Like-named read-outs stand apart in the source and are kept apart here.

Holding throughout (format): in vivo
The test system of experiment [1] is Veronica persica. As to the kind of experiment: Post-emergence herbicidal action against harmful plants. The note with it: 504 h, dosage 80 g/ha, visual rating after about 3 weeks (Table D), read-out: Herbicidal action against VERPE. The source says: (§1) The abbreviations used in the tables below denote: • ABUTH Abutilon theophrasti • AMARE Amaranthus retroflexus • ECHCG Echinochloa crus galli • PHBPU Phartoitis purpureum • STEME Stellaria media • ALOMY Alopecurus myosuroides • AVEFA Avena fatua • MATIN Matricaria inodora • POLCO Fallopia convolvulus • VERPE Veronica persica 1. Pre-emergence Herbicidal Action Against Harmful Plants Seeds of monocotyledonous and dicotyledonous weed and crop plants are placed in sandy loam in wood-fibre pots, covered with soil and cultivated in a greenhouse under good growth conditions. 2 to 3 weeks after sowing, the test plants are treated at the one-leaf stage. The compounds according to the invention, formulated in the form of wettable powders (WP) or as emulsion concentrates (EC), are then sprayed as aqueous suspension or emulsion at a water application rate of 600 to 800 I/ha (converted) with the addition of 0.2% of wetting agent onto the green parts of the plants. After the test plants have been kept in the greenhouse under optimum growth conditions for about 3 weeks, the activity of the preparations is rated visually in comparison to untreated controls (herbicidal activity in percent (%): 100% activity=the plants have died, 0% activity=control plants, —=not tested).

The subject of experiment [2] is Amaranthus retroflexus. The description is as above. The conditions noted are these: 504 h, dosage 80 g/ha, visual rating after about 3 weeks (Table D), read-out: Herbicidal action against AMARE.
Excerpt: as §1

The test system of experiment [3] is Abutilon theophrasti. Described as above. The conditions noted are these: 504 h, dosage 80 g/ha, read-out: Herbicidal action against ABUTH.
Excerpt: as §1

Experiment [4] relates to Matricaria inodora. The experiment is described as above. The conditions noted are these: Tripleurospermum inodorum, 504 h, dosage 80 g/ha, read-out: Herbicidal action against MATIN.
Excerpt: as §1

Experiment [5] concerns Stellaria media. The experiment is described as above. The conditions noted are these: 504 h, dosage 80 g/ha, visual rating after about 3 weeks (Table D), read-out: Herbicidal action against STEME.
Excerpt: as §1

For experiment [6], the system named is Echinochloa crus galli. The description is as above. The conditions noted are these: 504 h, dosage 80 g/ha, visual rating after about 3 weeks (Table D), read-out: Herbicidal action against ECHCG.
Excerpt: as §1

In experiment [7] the test system is Phartoitis purpureum. The description is as above. The conditions noted are these: 504 h, dosage 80 g/ha.
Excerpt: as §1

Experiment [8] concerns Veronica persica. As to the kind of experiment: Pre-emergence herbicidal action against harmful plants. The note with it: 504 h, dosage 320 g/ha, visual assessment after 3 weeks (Table A), read-out: Herbicidal action against VERPE. From the text:
(§2) The abbreviations used in the tables below denote: • ABUTH Abutilon theophrasti • AMARE Amaranthus retroflexus • ECHCG Echinochloa crus galli • PHBPU Phartoitis purpureum • STEME Stellaria media • ALOMY Alopecurus myosuroides • AVEFA Avena fatua • MATIN Matricaria inodora • POLCO Fallopia convolvulus • VERPE Veronica persica 1. Pre-emergence Herbicidal Action Against Harmful Plants Seeds of monocotyledonous and dicotyledonous weed plants and crop plants are placed in wood-fibre pots in sandy loam and covered with soil. The compounds according to the invention and the compounds known from the prior art, formulated in the form of wettable powders (WP) or as emulsion concentrates (EC), are then applied as aqueous suspension or emulsion at a water application rate of 600 to 800 I/ha (converted) with the addition of 0.2% of wetting agent to the surface of the covering soil. After the treatment, the pots are placed in a greenhouse and kept under good growth conditions for the test plants. The visual assessment of the damage to the test plants is carried out after a trial period of 3 weeks by comparison with untreated controls (herbicidal activity in percent (%): 100% activity=the plants have died, 0% activity=like control plants, —=not tested). The results of comparative table A show the compounds according to the invention have a higher herbicidal activity than the compounds of the greatest structural similarity known from the closest prior art.

Experiment [9] has as its system Amaranthus retroflexus. The description is as above. The note with it: 504 h, dosage 320 g/ha, visual assessment after 3 weeks (Table A), read-out: Herbicidal action against AMARE.
Excerpt: as §2

The test system of experiment [10] is Abutilon theophrasti. Described as above. The note with it: Abutilon theophrasti, 504 h, dosage 320 g/ha, visual assessment after 3 weeks (Table A), read-out: Herbicidal action against ABUTH.
Excerpt: as §2

In experiment [11] the test system is Matricaria inodora. Described as above. The conditions noted are these: Tripleurospermum inodorum, 504 h, dosage 320 g/ha, visual assessment after 3 weeks (Table A), read-out: Herbicidal action against MATIN.
Excerpt: as §2

The test system of experiment [12] is Stellaria media. The experiment is described as above. The conditions noted are these: 504 h, dosage 320 g/ha, visual assessment after 3 weeks (Table A), read-out: Herbicidal action against STEME.
Excerpt: as §2

Experiment [13] deals with Echinochloa crus galli. The description is as above. The note with it: Echinochloa, 504 h, dosage 320 g/ha, visual assessment after 3 weeks (Table A), read-out: Herbicidal action against ECHCG.
Excerpt: as §2

Experiment [14] concerns Phartoitis purpureum. The description is as above. The conditions noted are these: dosage 320 g/ha, visual assessment after 3 weeks (Table A).
Excerpt: as §2

In the next experiment the test system is Fallopia convolvulus. As to the kind of experiment: Post-emergence herbicidal action against harmful plants. The conditions noted are these: 504 h, dosage 80 g/ha, read-out: Herbicidal action against POLCO.
Excerpt: as §1

Setting [15] is: visual rating after about 3 weeks (Table D).
[16] abbreviates: visual rating after about 3 weeks (Table D), read-out: Herbicidal action against PHBPU.
Where [17] appears, read: visual rating after about 3 weeks (Table E).
[18] abbreviates: visual rating after about 3 weeks (Table E), read-out: Herbicidal action against PHPBU.

On to `CCN(CC)C(=O)COc1c(S(C)(=O)=O)ccc(C(=O)C2=C(O)CCCC2=O)c1C(F)(F)F` [Compound E2], for which the pest or weed control at 80 g/ha in the experiment on Veronica persica [1] is 100%; with Amaranthus retroflexus [2] it was 100%; with Abutilon theophrasti [3] (setting [15]), 90%; in the experiment on Matricaria inodora [4] (setting [15]), 100%; in the experiment with Stellaria media [5] it was 100%; with Echinochloa crus galli [6], 90%. In addition, in the experiment with Phartoitis purpureum [7] (setting [16]), the pest or weed control at 80 g/ha stood at 100%. Further, the pest or weed control at 320 g/ha in the experiment on Veronica persica [8] came out at 100%; with Amaranthus retroflexus [9], 100%; in the experiment with Abutilon theophrasti [10], 100%; in the experiment with Matricaria inodora [11], 100%; with Stellaria media [12], 90%; in the experiment on Echinochloa crus galli [13] it was 100%. Moreover, the “Herbicidal action against PHBPU” value in the experiment with Phartoitis purpureum [14] amounted to 80%.

As for `CCS(=O)(=O)c1ccc(C(=O)C2=C(O)CCCC2=O)c(Cl)c1OCC(=O)NC` [Compound S10, reference compound], the pest or weed control at 80 g/ha in the experiment with Fallopia convolvulus (setting [17]) was 80%; in the experiment on Abutilon theophrasti [3] (setting [17]), 90%; with Matricaria inodora [4] (setting [17]) it was 70%; with Phartoitis purpureum [7] (setting [18]), 90%.

Consider `CN(C)C(=O)COc1c(S(C)(=O)=O)ccc(C(=O)C2=C(O)CCCC2=O)c1C(F)(F)F` [Compound E4], for which the pest or weed control at 80 g/ha with Veronica persica [1] worked out at 100%; with Fallopia convolvulus (setting [15]), 70%; in the experiment with Amaranthus retroflexus [2] it was 90%; in the experiment with Abutilon theophrasti [3] (setting [15]) it was 90%; with Matricaria inodora [4] (setting [15]) it was 90%; in the experiment on Stellaria media [5] it was 100%. Also, the pest or weed control at 320 g/ha with Veronica persica [8] was 100%; in the experiment on Amaranthus retroflexus [9], 100%; in the experiment with Abutilon theophrasti [10], 100%; with Matricaria inodora [11], 100%; in the experiment with Stellaria media [12] it was 90%; with Echinochloa crus galli [13], 100%.

With `CCN(CC)C(=O)COc1c(S(=O)(=O)CC)ccc(C(=O)C2=C(O)CCCC2=O)c1C(F)(F)F` [Compound E3], the pest or weed control at 80 g/ha with Veronica persica [1] stood at 100%; in the experiment on Fallopia convolvulus (setting [15]) it was 90%; with Amaranthus retroflexus [2] it was 100%; in the experiment on Abutilon theophrasti [3] (setting [15]) it was 100%; in the experiment with Matricaria inodora [4] (setting [15]) it was 90%; in the experiment with Stellaria media [5] it was 100%. Moreover, the results for the pest or weed control at 80 g/ha in the experiment on Echinochloa crus galli [6] and in the experiment on Phartoitis purpureum [7] (setting [16]) were 100% and 90%, respectively. Moreover, the pest or weed control at 320 g/ha with Veronica persica [8], with Amaranthus retroflexus [9], with Abutilon theophrasti [10], in the experiment with Matricaria inodora [11], with Stellaria media [12] and with Echinochloa crus galli [13] was 100% each time. Further, the “Herbicidal action against PHBPU” value in the experiment on Phartoitis purpureum [14] is given as 90%.

`CCN(CC)C(=O)COc1c(S(C)(=O)=O)ccc(C(=O)C2=C(O)CCCC2=O)c1Cl` [Compound S2, reference compound]: the pest or weed control at 80 g/ha was determined as 90% with Veronica persica [1]; 90% with Amaranthus retroflexus [2]; 80% in the experiment with Abutilon theophrasti [3] (setting [15]); 70% with Matricaria inodora [4] (setting [15]); 90% in the experiment on Stellaria media [5]; 30% with Echinochloa crus galli [6]. Further, the pest or weed control at 80 g/ha in the experiment with Phartoitis purpureum [7] (setting [16]) amounted to 90%. The pest or weed control at 320 g/ha turned out to be 100% in the experiment on Veronica persica [8]; 100% in the experiment on Amaranthus retroflexus [9]; 40% in the experiment with Abutilon theophrasti [10]; 60% in the experiment on Matricaria inodora [11]; 20% in the experiment with Stellaria media [12]; 70% with Echinochloa crus galli [13]. In the experiment with Phartoitis purpureum [14], the “Herbicidal action against PHBPU” value is listed as 70%.

On to `CCN(C)C(=O)COc1c(S(=O)(=O)CC)ccc(C(=O)C2=C(O)CCCC2=O)c1Cl` [Compound S6, reference compound], for which the pest or weed control at 80 g/ha with Veronica persica [1] was found to be 100%; with Fallopia convolvulus (setting [15]) it was 0%; in the experiment on Amaranthus retroflexus [2], 80%; in the experiment with Abutilon theophrasti [3] (setting [15]), 90%; in the experiment with Matricaria inodora [4] (setting [15]), 80%; with Stellaria media [5] it was 90%. Also, the pest or weed control at 80 g/ha with Echinochloa crus galli [6] is 20%; with Phartoitis purpureum [7] (setting [16]) it was 80%. The pest or weed control at 320 g/ha was found to be 90% in the experiment on Veronica persica [8]; 100% with Amaranthus retroflexus [9]; 100% with Abutilon theophrasti [10]; 80% with Matricaria inodora [11]; 80% in the experiment with Stellaria media [12]; 90% in the experiment with Echinochloa crus galli [13].

Regarding `CCS(=O)(=O)c1ccc(C(=O)C2=C(O)CCCC2=O)c(C(F)(F)F)c1OCC(=O)NC` [Compound E10], the pest or weed control at 80 g/ha worked out at 100% in the experiment on Fallopia convolvulus (setting [17]), 100% in the experiment on Abutilon theophrasti [3] (setting [17]), 90% in the experiment on Matricaria inodora [4] (setting [17]) and 100% in the experiment with Phartoitis purpureum [7] (setting [18]).

As to `CN(C)C(=O)COc1c(S(C)(=O)=O)ccc(C(=O)C2=C(O)CCCC2=O)c1Cl` [Compound S4, reference compound], the pest or weed control at 80 g/ha in the experiment with Veronica persica [1] was 90%; with Fallopia convolvulus (setting [15]), 0%; with Amaranthus retroflexus [2], 60%; in the experiment with Abutilon theophrasti [3] (setting [15]), 70%; in the experiment on Matricaria inodora [4] (setting [15]), 70%; in the experiment with Stellaria media [5], 90%. The pest or weed control at 320 g/ha was 100% with Veronica persica [8]; 100% in the experiment on Amaranthus retroflexus [9]; 50% in the experiment with Abutilon theophrasti [10]; 80% with Matricaria inodora [11]; 90% in the experiment on Stellaria media [12]; 40% with Echinochloa crus galli [13].

Regarding `CCN(C)C(=O)COc1c(S(=O)(=O)CC)ccc(C(=O)C2=C(O)CCCC2=O)c1C(F)(F)F` [Compound E6], the pest or weed control at 80 g/ha in the experiment with Veronica persica [1] was found to be 100%; in the experiment on Fallopia convolvulus (setting [15]) it was 90%; in the experiment on Amaranthus retroflexus [2], 90%; in the experiment on Abutilon theophrasti [3] (setting [15]) it was 100%; with Matricaria inodora [4] (setting [15]), 100%; with Stellaria media [5] it was 100%. Further, the pest or weed control at 80 g/ha with Echinochloa crus galli [6] and in the experiment with Phartoitis purpureum [7] (setting [16]) was 100% each time. Further, the pest or weed control at 320 g/ha in the experiment on Veronica persica [8], with Amaranthus retroflexus [9], with Abutilon theophrasti [10], with Matricaria inodora [11], in the experiment on Stellaria media [12] and in the experiment on Echinochloa crus galli [13] was 100% throughout.
